System: human cardiac progenitors
Assay: Induction of AVN phenotype in hPSC-derived cardiac progenitors, flow cytometry for NKX2-5+TBX3+ myocytes at day 20
Format: cell-based
Procedure: First, hPSCs were incubated in media containing BMP and Rho-associated protein kinase (ROCK) inhibitor on an orbital shaker to generate embryoid bodies (differentiation protocol day: 0). Then, cardiogenic mesoderm was induced using media containing 1-100 ng/mL BMP4, 1-100 ng/ml Activin A, 1-20 ng/mL bFGF, and 1-10 μM CHIR-99021 (differentiation protocol day: 1). […] The cardiogenic mesoderm can be analyzed at day 3/4 of differentiation for the expression of PDGFRa, RALDH2 and CD235a, and should be PDGFRa+RALDH2− and CD235a^low (max 50% positive).
Next, cardiac progenitors were induced using media that contained 0.5-10 μM IWP2 and 1-20 ng/mL VEGF (differentiation protocol day: 3). At this stage, the cardiac progenitors may be a mixed population of early stage (NKX2-5^−) and late stage (NKX2-5^+) cardiac progenitors which may be contractile or not. […] Culture was continued in media that contained 5 ng/mL VEGF until day 12 of the differentiation protocol. The culture was maintained until day 20 of the differentiation protocol before analysis. […] FIGS. 3B, 4B, 5A and 5B present the percentage of NKX2-5^+ TBX3^+ myocytes of total cells present in the culture.
A NKX2-5:GFP+TBX3:tdTomato+ transgenic double reporter hPSC line was cultured using the protocol described in Example 1. AVNLPCs were identified and isolated using Fluorescence-activated cell sorting (FACS), based on their expression of NKX2-5 and TBX3 and the associated expression of the fluorescent reporter (FIG. 2).

Cc1c[nH]c(-c2cnc(NCCNc3ccc(C#N)cn3)nc2-c2ccc(Cl)cc2Cl)n1 [CHIR-99021]
Change in NKX2-5+TBX3+ AVNLPCs of total cell population at day 20 (9 uM CHIR from day 8-11, day 11-15 or day 15-18, n=5 (FIG. 3B)): significant increase
CHIR-99021 concentration at which relatively more NKX2-5+TBX3+ myocytes were induced (3-15 μM used): 12 to 15 µM
CHIR concentration giving highest percentage of NKX2-5+TBX3+ AVNLPCs (treatment day 8-11, day 20 analysis, n=5 (FIG. 4B)): 12 to 15 µM
